Reference: BindingDB's records for aid1799744 (Csar, 2012)

Target: Mitogen-activated protein kinase 1 (Homo sapiens, UniProt P28482)
Assay: Assay 1

Sequence of Mitogen-activated protein kinase 1 (P28482 whole entry): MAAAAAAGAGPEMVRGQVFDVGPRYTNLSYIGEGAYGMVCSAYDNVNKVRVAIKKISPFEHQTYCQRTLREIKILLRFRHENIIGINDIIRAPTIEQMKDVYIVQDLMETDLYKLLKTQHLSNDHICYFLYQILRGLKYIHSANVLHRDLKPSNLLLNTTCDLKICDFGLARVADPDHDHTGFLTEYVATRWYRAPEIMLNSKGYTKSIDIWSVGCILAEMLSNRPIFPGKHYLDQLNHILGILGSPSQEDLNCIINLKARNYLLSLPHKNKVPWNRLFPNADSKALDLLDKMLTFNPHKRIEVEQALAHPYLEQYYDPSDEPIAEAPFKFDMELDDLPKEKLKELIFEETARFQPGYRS

SMILES | Ki
Nc1ncc(-c2cc(Cl)cc(Cl)c2)c(-c2c[nH]c(C(=O)N[C@H](CO)c3ccccc3)c2)n1 [erk000031] | 229 nM
Cc1cnc(N)nc1-c1c[nH]c(C(=O)NCc2cccc3ccccc23)c1 [erk000037] | 603 nM
CCNc1ncc(C)c(-c2c[nH]c(C(=O)NCc3ccc(F)c(F)c3)c2)n1 [erk000038] | 240 nM
CCNc1ncc(C)c(-c2c[nH]c(C(=O)NCc3ccccc3C(F)(F)F)c2)n1 [erk000039] | 4570 nM
CNc1ncc(C)c(-c2c[nH]c(C(=O)NCc3cccc(C(F)(F)F)c3)c2)n1 [erk000042] | 468 nM
Cc1cnc(N)nc1-c1c[nH]c(C(=O)NCc2cccc(C(F)(F)F)c2)c1 [erk000043] | 562 nM
CNc1ncc(C)c(-c2c[nH]c(C(=O)NCc3ccccc3)c2)n1 [erk000045] | 776 nM
CCNc1ncc(C)c(-c2c[nH]c(C(=O)NCc3ccccc3)c2)n1 [erk000047] | 89 nM
O=C(NCc1ccc2c(c1)OCO2)c1cc(-c2ccnc(Nc3ccccc3)n2)c[nH]1 [erk000049] | 269 nM
CNc1ncc(C)c(-c2c[nH]c(C(=O)NCc3ccc(Cl)cc3Cl)c2)n1 [erk000054] | 2000 nM
Cc1cnc(N)nc1-c1c[nH]c(C(=O)NCc2ccc(Cl)cc2Cl)c1 [erk000055] | 6760 nM
CNc1ncc(C)c(-c2c[nH]c(C(=O)NCc3ccc(F)c(F)c3)c2)n1 [erk000056] | 3720 nM
O=C(c1cc(-c2ccnc(Nc3ccccc3)n2)c[nH]1)N1CCc2ccccc2C1 [erk000057] | 525 nM
CCNc1ncc(C)c(-c2c[nH]c(C(=O)N3CCc4ccccc4C3)c2)n1 [erk000058] | 1590 nM
CN(Cc1ccccc1)C(=O)c1cc(-c2ccnc(Nc3ccccc3)n2)c[nH]1 [erk000059] | 302 nM
CCNc1ncc(C)c(-c2c[nH]c(C(=O)NCc3cccc(C(F)(F)F)c3)c2)n1 [erk000062] | 141 nM
Cc1cnc(N)nc1-c1c[nH]c(C(=O)NCc2ccc3c(c2)OCO3)c1 [erk000066] | 141 nM
CCc1cnc(N)nc1-c1c[nH]c(C(=O)NCc2cccc3ccccc23)c1 [erk000070] | 1100 nM
Clc1ccc(-c2n[nH]c3c2CCCC3)cc1 [erk000071] | 5250 nM
Cc1onc(-c2ccccc2)c1-c1ccnc(NC2CCC(O)CC2)n1 (centres undefined) [erk000075] | 1000 nM
Cc1onc(-c2ccccc2)c1-c1ccn(C(=O)NC(C)C)n1 [erk000088] | 15100 nM
Cc1cnc(N)nc1-c1c[nH]c(C(=O)NCc2ccccc2)c1 [erk000103] | 832 nM
O=C(NCc1ccncc1)c1cc(-c2n[nH]cc2-c2cc(Cl)cc(Cl)c2)c[nH]1 [erk000114] | 79 nM
O=C(c1cc(-c2n[nH]cc2-c2cc(Cl)cc(Cl)c2)c[nH]1)N1CCOCC1 [erk000124] | 813 nM

SMILES | Ki
Fc1ccc(-c2n[nH]cc2-c2ccnc(NC3CCCCC3)c2)cc1 [erk000125] | 2570 nM
CCN(C)C(=O)c1cc(-c2[nH]ncc2-c2ccc(F)c(Cl)c2)c[nH]1 [erk000142] | 251 nM
CCN(CC)CCOc1ccc(Nc2ncc3cc(-c4c(Cl)cccc4Cl)c(=O)n(C)c3n2)cc1 [erk000225] | 174 nM
O=C(NCc1ccc2c(c1)CCO2)c1cc(-c2n[nH]cc2-c2cccc(Cl)c2)c[nH]1 [erk000232] | 21 nM
C[S+]([O-])c1ccc(-c2nc(-c3cccc(I)c3)c(-c3ccncc3)[nH]2)cc1 (centres undefined) [erk000253] | 12900 nM
NCc1ccc(-c2cn[nH]c2-c2c[nH]c(C(=O)NCc3ccc4c(c3)CCO4)c2)cc1C(F)(F)F [erk000282] | 191 nM
CC1CCN(c2nc(Nc3cc(C4CC4)n[nH]3)c3ccccc3n2)CC1 [erk000284] | 65 nM
Cc1cnc(N)nc1-c1c[nH]c(C(=O)NCc2ccc(F)c(F)c2)c1 [erk000286] | 48 nM
Cc1cnc(N)nc1-c1c[nH]c(C(=O)NCc2ccc(Cl)cc2)c1 [erk000302] | 617 nM
Cc1cnc(N)nc1-c1c[nH]c(C(=O)NCc2cccc(Cl)c2)c1 [erk000303] | 81 nM
Cc1cnc(N)nc1-c1c[nH]c(C(=O)NCc2ccc(F)c(Cl)c2)c1 [erk000304] | 372 nM
Cc1cnc(NC2CCCCC2)nc1-c1c[nH]c(C(=O)NCc2ccc(F)c(F)c2)c1 [erk000310] | 71 nM
Cc1cnc(N)nc1-c1c[nH]c(C(=O)NCc2ccccc2F)c1 [erk000311] | 4790 nM
COc1ccccc1CNC(=O)c1cc(-c2nc(N)ncc2C)c[nH]1 [erk000312] | 2510 nM
Cc1cnc(N)nc1-c1cc(C(=O)NCc2ccc(F)c(Cl)c2)n(Cc2ccccc2)c1 [erk000317] | 11000 nM
Cc1cnc(N)nc1-c1cc(C(=O)NCc2ccc(F)c(F)c2)n(C)c1 [erk000327] | 3470 nM
CCN(CC)CCNc1ncc(C)c(-c2c[nH]c(C(=O)NCc3ccc(F)c(F)c3)c2)n1 [erk000364] | 3980 nM
Cc1cnc(Nc2nc(N3CCCCC3)nc3ccccc23)nc1-c1c[nH]c(C(=O)NCc2ccccc2)c1 [erk000377] | 2090 nM
CCOC(=O)CNCc1ccc(-c2c[nH]nc2-c2c[nH]c(C(=O)N[C@H](CO)c3ccc(F)c(Cl)c3)c2)cc1Cl [erk000391] | 18 nM
CNc1ncc(C)c(-c2c[nH]c(C(=O)NCc3ccc(F)c(Cl)c3)c2)n1 [erk000393] | 282 nM
CNc1ncc(C)c(-c2c[nH]c(C(=O)N[C@@H](CO)c3ccc(F)c(Cl)c3)c2)n1 [erk000396] | 68 nM
Cc1cnc(Nc2ccccc2)nc1-c1c[nH]c(C(=O)NCc2ccc(F)c(Cl)c2)c1 [erk000398] | 25 nM
Cc1ccc([C@@H](CO)NC(=O)c2cc(-c3nc(Nc4cccc(F)c4)ncc3C)c[nH]2)cc1F [erk000436] | 6 nM
Cc1ccc(Nc2ncc(C)c(-c3c[nH]c(C(=O)NCc4cccc(C(F)(F)F)c4)c3)n2)cc1C [erk000440] | 28 nM

The next lines start with the values.

Ki | SMILES
58 nM | CNc1ncc(C)c(-c2c[nH]c(C(=O)NCc3cccc4ccccc34)c2)n1 [erk000036]
4 nM | Cc1cnc(Nc2ccccc2)nc1-c1c[nH]c(C(=O)N[C@H](CO)c2ccccc2)c1 [erk000040]
3 nM | CCNc1ncc(C)c(-c2c[nH]c(C(=O)N[C@H](CO)c3ccccc3)c2)n1 [erk000041]
59 nM | CNc1ncc(C)c(-c2c[nH]c(C(=O)N[C@H](CO)c3ccccc3)c2)n1 [erk000046]
12900 nM | CCNc1ncc(C)c(-c2c[nH]c(C(=O)N[C@@H](CO)c3ccccc3)c2)n1 [erk000048]
120 nM | CCNc1ncc(CC)c(-c2c[nH]c(C(=O)N[C@H](CO)c3ccccc3)c2)n1 [erk000060]
288 nM | CCc1cnc(N)nc1-c1c[nH]c(C(=O)N[C@H](CO)c2ccccc2)c1 [erk000065]
324 nM | Nc1nccc(-c2c[nH]c(C(=O)N[C@H](CO)c3ccccc3)c2)n1 [erk000067]
100 nM | CCNc1nccc(-c2c[nH]c(C(=O)N[C@H](CO)c3ccccc3)c2)n1 [erk000068]
83 nM | O=C(N[C@H](CO)c1ccccc1)c1cc(-c2n[nH]cc2-c2cccc(C(F)(F)F)c2)c[nH]1 [erk000184]
1910 nM | Cc1cnc(N)nc1-c1c[nH]c(C(=O)N[C@H](CO)c2ccccc2)c1 [erk000287]
1550 nM | Cc1cnc(N)nc1-c1c[nH]c(C(=O)N[C@@H](CCO)c2ccccc2)c1 [erk000305]
15800 nM | Cc1cnc(N)nc1-c1c[nH]c(C(=O)N[C@H](CCO)c2ccccc2)c1 [erk000306]
3980 nM | Cc1cnc(N)nc1-c1cc(C(=O)N[C@H](CO)c2ccccc2)n(Cc2ccccc2)c1 [erk000319]
4 nM | Cc1cnc(Nc2ccccc2)nc1-c1c[nH]c(C(=O)N[C@@H](CO)c2ccc(F)c(Cl)c2)c1 [erk000397]
417 nM | O=C(N[C@H](CO)c1ccccc1)c1cc(-c2nc(Nc3ccccc3)ncc2C2CC2)c[nH]1 [erk000434]
2 nM | Cc1ccc([C@@H](CO)NC(=O)c2cc(-c3nc(Nc4ccccc4)ncc3C)c[nH]2)cc1F [erk000435]
2 nM | Cc1cnc(Nc2cccc(C(F)(F)F)c2)nc1-c1c[nH]c(C(=O)N[C@H](CO)c2ccccc2)c1 [erk000438]

Ki | SMILES
14 nM | Cc1cnc(NCc2ccccc2)nc1-c1c[nH]c(C(=O)N[C@H](CO)c2ccccc2)c1 [erk000439]
2 nM | Cc1ccc(Nc2ncc(C)c(-c3c[nH]c(C(=O)N[C@H](CO)c4ccccc4)c3)n2)cc1C [erk000441]
3 nM | Cc1cnc(Nc2ccc(OCc3ccccc3)cc2)nc1-c1c[nH]c(C(=O)N[C@H](CO)c2ccccc2)c1 [erk000442]
5 nM | Cc1cnc(NCC(F)(F)F)nc1-c1c[nH]c(C(=O)N[C@H](CO)c2ccccc2)c1 [erk000444]
1 nM | Cc1cnc(N[C@H](CO)c2ccccc2)nc1-c1c[nH]c(C(=O)N[C@H](CO)c2ccccc2)c1 [erk000445]
68 nM | COc1ccccc1Nc1ncc(C)c(-c2c[nH]c(C(=O)N[C@H](CO)c3ccccc3)c2)n1 [erk000446]
2 nM | Cc1cnc(Nc2ccc(OC(F)(F)F)cc2)nc1-c1c[nH]c(C(=O)N[C@H](CO)c2ccccc2)c1 [erk000447]
3 nM | Cc1cnc(NCC(C)C)nc1-c1c[nH]c(C(=O)N[C@H](CO)c2ccccc2)c1 [erk000448]
5 nM | Cc1cnc(NCC2CC2)nc1-c1c[nH]c(C(=O)N[C@H](CO)c2ccccc2)c1 [erk000453]
501 nM | CCNc1ncc(C)c(-c2c[nH]c(C(=O)N[C@@H](CCO)c3ccccc3)c2)n1 [erk000459]
1 nM | Cc1cnc(NC2(CO)CC2)nc1-c1c[nH]c(C(=O)N[C@H](CO)c2ccccc2)c1 [erk000460]
17 nM | Cc1cnc(NCCO)nc1-c1c[nH]c(C(=O)N[C@H](CO)c2ccccc2)c1 [erk000461]
14 nM | Cc1cnc(N[C@H](C)CO)nc1-c1c[nH]c(C(=O)N[C@H](CO)c2ccccc2)c1 [erk000462]
27 nM | Cc1cnc(NC[C@@H](C)O)nc1-c1c[nH]c(C(=O)N[C@H](CO)c2ccccc2)c1 [erk000463]
37 nM | Cc1cnc(NC[C@H](C)O)nc1-c1c[nH]c(C(=O)N[C@H](CO)c2ccccc2)c1 [erk000464]
7 nM | Cc1cnc(N[C@H]2CCCC[C@H]2O)nc1-c1c[nH]c(C(=O)N[C@H](CO)c2ccccc2)c1 [erk000465]
1000 nM | CCNc1ncc(C)c(-c2c[nH]c(C(=O)N[C@H](C(=O)OC)c3ccccc3)c2)n1 [erk000470]
15 nM | Cc1cnc(N[C@@H](C)CO)nc1-c1c[nH]c(C(=O)N[C@H](CO)c2ccccc2)c1 [erk000471]
